Experimental data reported in patent US20250115633A1, “PHOTODYNAMIC THERAPY AND DIAGNOSIS” (RMW CHO Group Limited, priority 2021, published 2025).
Structures can show the parent of a compound that is named as a salt. Where two headings read alike, the source gives them in different places.

Assays:
[1] = tested on: SKOV3 ovarian cancer cells; assay: Phototoxicity in SKOV3 cells after 660 nm light activation (AlamarBlue viability); type: cell-based, Human; conditions: read-out: Phototoxicity μM (IC90)
Description: (§1) Samples were stored at 4° C. protected from light.
(§2) All data are shown as mean±SD (where appropriate).
Media was then replaced with fresh media containing AlamarBlue, and % viable cells remaining assessed as above. Controls included cells treated with chlorin e4 analogues but not activated by laser light; cells without chlorin e4 analogue treatment but with laser light; and untreated controls. All measurements were made in quadruplicate.

[2] = tested on: SKOV3 ovarian cancer cells; assay: Inherent cytotoxicity (dark toxicity) in SKOV3 cells (AlamarBlue viability); type: cell-based, Human
Description: as §1, §2
Untreated cells were used as a control. […] All measurements were made in quadruplicate.

[3] = Homo sapiens, SK-OV-3, light or radiation study
[4] = SKOV3, 24 hours incubation, no light activation
[5] = SKOV3, 24 hours uptake, 660 nm, 50 mW/cm^2 for 5 mins (total 15 J/cm^2), * phototoxicity measured by LED

Molecule | IC90 [1, 3] [µM] | Dark toxicity μM (IC10) [2, 4] [µM] | further results
C=Cc1c(C)c2cc3nc(c(C)c4[nH]c(cc5nc(cc1[nH]2)C(C)=C5CC)c(C)c4C(=O)O)[C@@H](CCC(=O)O)[C@@H]3C [Chlorin e4 disodium, Chlorin e4 Disodium Salt, reference compound] |  |  | IC90 ([1]; SKOV3, 24 hours uptake, 660 nm, 50 mW/cm^2 for 5 mins (total 15 J/cm^2), values not marked * (laser)): 21.3 µM; Dark toxicity μM (IC10) [2]: 40.23 µM
CCC1=C(C)c2cc3[nH]c(cc4nc(c(C)c5[nH]c(cc1n2)c(C)c5C(=O)OC)[C@@H](CCC(=O)OC)[C@@H]4C)c(C)c3C(C)OCCCS[C@@H]1O[C@H](CO)[C@@H](O)[C@H](O)[C@H]1O (stereo partly drawn) [Compound 1, methyl (7S,8S)-18-ethyl-7-(3-methoxy-3-oxopropyl)-2,5,8,12,17-pentamethyl-13-(1-(3-(((2S,3R,4S,5S,6R)-3,4,5-trihydroxy-6-(hydroxymethyl)tetrahydro-2H-pyran-2-yl)thio)propoxy)ethyl)-7H,8H-porphyrin-3-carboxylate] | 0.06 | 8.64 | 
CCC1=C(C)c2cc3[nH]c(cc4nc(c(C)c5[nH]c(cc1n2)c(C)c5C(=O)OC)[C@@H](CCC(=O)OC)[C@@H]4C)c(C)c3COC(=O)NCCCOCCC[P+](c1ccccc1)(c1ccccc1)c1ccccc1 [Compound 4, chlorin e4 dimethyl ester 13-(N-(3-(3-triphenylphosphoniumpropoxy)propyl)chloride)carbamate] | 0.0024 | 3.881 | 
CCC1=C(C)c2cc3[nH]c(cc4nc(c(C)c5[nH]c(cc1n2)c(C)c5C(=O)OC)[C@@H](CCC(=O)OC)[C@@H]4C)c(C)c3COC(=O)NCCC[P+](c1ccccc1)(c1ccccc1)c1ccccc1 [Compound 5, chlorin e4 dimethyl ester 13-(N-(3-triphenylphosphoniumpropyl)bromide)carbamate] | 0.0029 | 3.046 | 
CCC1=C(C)c2cc3[nH]c(cc4nc(c(C)c5[nH]c(cc1n2)c(C)c5C(=O)OC)[C@@H](CCC(=O)OC)[C@@H]4C)c(C)c3COC(=O)NCC[P+](c1ccccc1)(c1ccccc1)c1ccccc1 [Compound 6, chlorin e4 dimethyl ester 13-(N-(2-triphenylphosphoniumethyl)bromide)carbamate] |  | 2.281 | IC90 ([1]; Homo sapiens, SK-OV-3, light or radiation study, SKOV3, 24 hours uptake, 660 nm, 50 mW/cm^2 for 5 mins (total 15 J/cm^2), * phototoxicity measured by LED): 0.0018 µM
C=Cc1c(C)c2cc3nc(c(CC(=O)N[C@@H](CC(=O)O)C(=O)O)c4[nH]c(cc5nc(cc1[nH]2)C(C)=C5CC)c(C)c4C(=O)O)[C@@H](CCC(=O)O)[C@@H]3C [Talaporfin sodium, reference compound] |  | 11.10 | 
chlorin e4 13-hydroxymethyl dimethyl ester |  |  | IC90 [1, 5]: 0.325 µM; Dark toxicity μM (IC10) [2]: 42.830 µM
chlorin e4 dimethyl ester 13-(6-(triphenylphosphonium bromide)hexyl)carbamate [Compound 3] |  | 0.838 | IC90 [1, 5]: 0.0041 µM
